{"source": "patent US6417211B1", "about": "“Isothiazolone concentrates” (Rohm and Haas Company, priority 1999, dated 2002)", "key": {"[1]": {"experiment": "Chemical stability of MI solutions on storage (HPLC, % active ingredient remaining)", "type": "physicochemical", "conditions": "± 1-2%"}, "[2]": {"experiment": "Physical stability of MI solutions on storage (homogeneity, clarity, crystallization, precipitation, phase separation)", "type": "physicochemical", "description": "By “physically stable” we mean that the compositions are homogeneous and fluid at temperatures of 20 to 25° C. for at least 24 hours. Preferably the compositions are physically stable at 20° C. and below for at least 3 days, more preferably for at least 2 weeks, and most preferably for at least 4 weeks. In addition, it is desirable that the compositions retain their physical stability for similar time periods at temperatures of 15° C. and below, and preferably at 5° C. and below.\nSamples of technical grade 2-methyl-3-isothiazolone (MI) were used to prepare solutions of the NHITA in various solvents at different concentrations. […] Solutions were prepared by adding a weighed amount of molten MI (melted at about 55° C.) to a weighed amount of deionized water (or a solvent or a solvent-water mixture) in a 20-milliliter (ml) vial; the mixture was swirled and allowed to cool to room temperature. The prepared samples were allowed to stand at room temperature (20-25° C.) for 24 hours and then subjected to storage at cooler temperatures (5° C. and −17° C.) for at least 72 hours; observations were made at each condition to determine physical stability (homogeneity, clarity, crystallization, precipitation, phase separation). The samples were considered physically stable if no crystallization, phase separation or precipitation occurred; concentrations (or concentration ranges) at which the compositions were unstable are indicated by ** superscript, otherwise concentrations (ranges) listed were stable; results are summarized in Table I (concentrations are weight % MI)."}, "[3]": {"conditions": "solvent DEC (diethyl carbonate), 20-25° C., 24 hours"}, "[4]": {"conditions": "solvent DME (1,2-dimethoxyethane), 20-25° C., 24 hours"}, "[5]": {"conditions": "solvent DMSO, 20-25° C., 24 hours"}, "[6]": {"conditions": "solvent IPA (isopropanol), 5° C., at least 72 hours"}, "[7]": {"conditions": "solvent MeOH, 5° C., at least 72 hours"}, "[8]": {"conditions": "solvent PC (propylene carbonate), 20-25° C., 24 hours"}, "[9]": {"conditions": "solvent PG (propylene glycol), 5° C., at least 72 hours"}, "[10]": {"conditions": "solvent Water, 5° C., at least 72 hours"}, "[11]": {"conditions": "solvent Water, 20-25° C., 24 hours"}, "[12]": {"conditions": "solvent Water, −17° C., at least 72 hours"}}, "note": "Marks after values point to notes of the source that are not given here."}
{"smiles": "Cn1sccc1=O", "note": "[MI, 2-Methyl-3-isothiazolone]", "values": [{"measurement": "% Active Ingredient (MI) Remaining", "setting": "[1]; initial MI concentration 68, PG, 40° C./11 days", "value": 100, "unit": "%"}, {"measurement": "% Active Ingredient (MI) Remaining", "setting": "[1]; initial MI concentration 78, MeOH, 40° C./11 days", "value": 104, "unit": "%"}, {"measurement": "% Active Ingredient (MI) Remaining", "setting": "[1]; initial MI concentration 85.8, Water, 55° C./4 weeks", "value": 97.1, "unit": "%"}, {"measurement": "% Active Ingredient (MI) Remaining", "setting": "[1]; initial MI concentration 88, 50/50 MeOH/Water, 40° C./11 days", "value": 101, "unit": "%"}, {"measurement": "time solution remained stable", "setting": "[2]; 80% MI solution in water, 5° C.", "value": "at least 4 months"}, {"measurement": "time solution remained stable", "setting": "[2]; 90% MI solution in water, 5° C.", "value": "at least 4 months"}, {"measurement": "MI concentration physically stable", "setting": "[2]; solvent 50/50 MeOH/Water, 5° C., at least 72 hours", "value": 88, "unit": "weight %"}, {"measurement": "MI concentration physically stable", "setting": "[2]; solvent 50/50 MeOH/Water, 20-25° C., 24 hours", "value": 88, "unit": "weight %"}, {"measurement": "MI concentration physically unstable (crystal formation or insoluble)", "setting": "[2]; solvent 50/50 MeOH/Water, −17° C., at least 72 hours", "value": "88** weight %"}, {"measurement": "MI concentration physically unstable (crystal formation or insoluble)", "setting": "[2]; solvent BEE (2-(2-butoxyethoxyl)ethanol), 5° C., at least 72 hours", "value": "68-88** weight %"}, {"measurement": "MI concentration physically stable", "setting": "[2]; solvent BEE (2-(2-butoxyethoxyl)ethanol), 20-25° C., 24 hours", "value": "68-88 weight %"}, {"measurement": "MI concentration physically unstable (crystal formation or insoluble)", "setting": "[2]; solvent DEC (diethyl carbonate), 5° C., at least 72 hours", "value": "70** weight %"}, {"measurement": "MI concentration physically stable", "setting": "[2]; [3]", "value": 70, "unit": "weight %"}, {"measurement": "MI concentration physically unstable (crystal formation or insoluble)", "setting": "[2]; [3]", "value": "80-90 weight %"}, {"measurement": "MI concentration physically unstable (crystal formation or insoluble)", "setting": "[2]; solvent DME (1,2-dimethoxyethane), 5° C., at least 72 hours", "value": "70-80** weight %"}, {"measurement": "MI concentration physically stable", "setting": "[2]; [4]", "value": "70-80 weight %"}, {"measurement": "MI concentration physically unstable (crystal formation or insoluble)", "setting": "[2]; [4]", "value": 90, "unit": "weight %"}, {"measurement": "MI concentration physically unstable (crystal formation or insoluble)", "setting": "[2]; solvent DMSO, 5° C., at least 72 hours", "value": "70-80** weight %"}, {"measurement": "MI concentration physically stable", "setting": "[2]; [5]", "value": "70-80 weight %"}, {"measurement": "MI concentration physically unstable (crystal formation or insoluble)", "setting": "[2]; [5]", "value": 90, "unit": "weight %"}, {"measurement": "MI concentration physically unstable (crystal formation or insoluble)", "setting": "[2]; solvent DPG (dipropylene glycol), 5° C., at least 72 hours", "value": "75-90** weight %"}, {"measurement": "MI concentration physically stable", "setting": "[2]; solvent DPG (dipropylene glycol), 20-25° C., 24 hours", "value": "75-90 weight %"}, {"measurement": "MI concentration physically stable", "setting": "[2]; [6]", "value": 78, "unit": "weight %"}, {"measurement": "MI concentration physically unstable (crystal formation or insoluble)", "setting": "[2]; [6]", "value": 88, "unit": "weight %"}, {"measurement": "MI concentration physically stable", "setting": "[2]; solvent IPA (isopropanol), 20-25° C., 24 hours", "value": "78-88 weight %"}, {"measurement": "MI concentration physically unstable (crystal formation or insoluble)", "setting": "[2]; solvent IPA (isopropanol), −17° C., at least 72 hours", "value": "78** weight %"}, {"measurement": "MI concentration physically stable", "setting": "[2]; [7]", "value": 78, "unit": "weight %"}, {"measurement": "MI concentration physically unstable (crystal formation or insoluble)", "setting": "[2]; [7]", "value": 88, "unit": "weight %"}, {"measurement": "MI concentration physically stable", "setting": "[2]; solvent MeOH, 20-25° C., 24 hours", "value": "78-88 weight %"}, {"measurement": "MI concentration physically stable", "setting": "[2]; solvent MeOH, −17° C., at least 72 hours", "value": 78, "unit": "weight %"}, {"measurement": "MI concentration physically unstable (crystal formation or insoluble)", "setting": "[2]; solvent PC (propylene carbonate), 5° C., at least 72 hours", "value": "69** weight %"}, {"measurement": "MI concentration physically stable", "setting": "[2]; [8]", "value": 69, "unit": "weight %"}, {"measurement": "MI concentration physically unstable (crystal formation or insoluble)", "setting": "[2]; [8]", "value": "80-90 weight %"}, {"measurement": "MI concentration physically stable", "setting": "[2]; [9]", "value": 68, "unit": "weight %"}, {"measurement": "MI concentration physically unstable (crystal formation or insoluble)", "setting": "[2]; [9]", "value": "78-88 weight %"}, {"measurement": "MI concentration physically stable", "setting": "[2]; solvent PG (propylene glycol), 20-25° C., 24 hours", "value": "68-88 weight %"}, {"measurement": "MI concentration physically stable", "setting": "[2]; solvent PG (propylene glycol), −17° C., at least 72 hours", "value": 68, "unit": "weight %"}, {"measurement": "MI concentration physically stable", "setting": "[2]; [10]", "value": "60-89.5 weight %"}, {"measurement": "MI concentration physically unstable (crystal formation or insoluble)", "setting": "[2]; [10]", "value": 90.5, "unit": "weight %"}, {"measurement": "MI concentration physically stable", "setting": "[2]; [11]", "value": "60-94.4 weight %"}, {"measurement": "MI concentration physically unstable (crystal formation or insoluble)", "setting": "[2]; [11]", "value": 95.4, "unit": "weight %"}, {"measurement": "MI concentration physically stable", "setting": "[2]; [12]", "value": "70-77 weight %"}, {"measurement": "MI concentration physically unstable (crystal formation or insoluble)", "setting": "[2]; [12]", "value": 88, "unit": "weight %"}, {"measurement": "MI concentration physically stable", "setting": "[2]; solvent φCH2OH (benzyl alcohol), 5° C., at least 72 hours", "value": 60, "unit": "weight %"}, {"measurement": "MI concentration physically stable", "setting": "[2]; solvent φCH2OH (benzyl alcohol), 20-25° C., 24 hours", "value": 60, "unit": "weight %"}, {"measurement": "MI concentration physically unstable (crystal formation or insoluble)", "setting": "[2]; solvent φCH2OH (benzyl alcohol), −17° C., at least 72 hours", "value": "60** weight %"}, {"measurement": "MI concentration physically stable", "setting": "[2]; solvent φOCH2CH2OH (phenoxyethanol), 5° C., at least 72 hours", "value": 60, "unit": "weight %"}, {"measurement": "MI concentration physically stable", "setting": "[2]; solvent φOCH2CH2OH (phenoxyethanol), 20-25° C., 24 hours", "value": 60, "unit": "weight %"}, {"measurement": "MI concentration physically unstable (crystal formation or insoluble)", "setting": "[2]; solvent φOCH2CH2OH (phenoxyethanol), −17° C., at least 72 hours", "value": "60** weight %"}]}
